Experimental data as given in patent US8158828B2, “Nuclear receptor binding agents” (priority 2005, dated 2012).

Legend:
[1] = system: TRAP positive multinucleated osteoclasts; assay: TRAP positive multinucleated osteoclasts from bone marrow cells; assay type: cell-based, rat; settings: RANKL and GMCSF, 12 days
Method: FIG. 7: Effect of the indicated compounds on TRAP positive multinucleated osteoclasts. Bone marrow cells from rat femur was cultured in Alpha MEM+10% csFBS without phenol red in the presence or absence of 30 ng/ml RANKL and 10 ng/ml GMCSF. The cells were treated for 12 days and were stained for tartarate resistant acid phosphatase activity (TRAP) and multinucleated osteoclasts were counted.
Bone marrow cells isolated from rat femur were cultured in Alpha MEM without phenol red+10% sterile FBS without phenol red in the presence or absence of […] RANKL and 10 ng/ml GMCSF. The cells were treated for 12 days were stained for tartarate resistant acid phosphatase activity (TRAP) positive multinucleated osteoclasts and were counted.

uterus = assay: In vivo estrogenic activity, uterine weight; set-up: species or system rat; settings: female rats, compound alone
Method: Rats that were administered the vehicle alone served as controls.

ER-α = molecular target: T1, ER-α (Rattus norvegicus, UniProt P06211); assay: ER-α transactivation, ERE-LUC in COS or 293 cells; assay type: cell-based; set-up: % estardiol activity, ER-α: dose or concentration left out as unconfirmed
T1 sequence (P06211 1-600): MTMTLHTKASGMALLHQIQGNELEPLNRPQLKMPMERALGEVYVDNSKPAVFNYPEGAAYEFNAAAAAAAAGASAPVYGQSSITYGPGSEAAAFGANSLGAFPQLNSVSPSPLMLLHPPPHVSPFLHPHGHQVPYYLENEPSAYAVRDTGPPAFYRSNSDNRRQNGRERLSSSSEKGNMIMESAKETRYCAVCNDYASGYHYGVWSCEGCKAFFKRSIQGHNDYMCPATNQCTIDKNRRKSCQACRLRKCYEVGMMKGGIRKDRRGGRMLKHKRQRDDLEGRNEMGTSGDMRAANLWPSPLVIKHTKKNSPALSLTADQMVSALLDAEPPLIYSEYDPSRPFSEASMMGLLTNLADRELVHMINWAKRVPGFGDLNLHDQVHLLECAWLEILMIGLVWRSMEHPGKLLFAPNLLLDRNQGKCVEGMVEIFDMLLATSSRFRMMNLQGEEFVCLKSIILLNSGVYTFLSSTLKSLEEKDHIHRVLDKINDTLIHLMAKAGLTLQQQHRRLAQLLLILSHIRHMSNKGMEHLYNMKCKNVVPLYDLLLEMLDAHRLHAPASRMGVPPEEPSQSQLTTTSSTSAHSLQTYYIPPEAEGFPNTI
Method: FIG. 1: Effects of the indicated compounds on ER-α transactivation. COS or 293 cells plated in DME without phenol red+10% charcoal stripped fetal bovine serum (csFBS) at 90,000 cells per well of 24 well plates were transfected with 0.25 μg ERE-LUC, 0.02 μg CMV-LUC (Renilla) and 25 ng of ER-α by lipofectamine. Twenty four hours after transfection, the cells were treated as indicated in the figure, harvested 48 hrs after transfection and were assayed for firefly and renilla luciferase.
(§1) FIG. 5: Effect of the indicated compounds on ER-α transactivation. COS or 293 cells plated in DME without phenol red+10% csFBS at 90,000 cells per well of a 24 well plate were transfected with 0.25 μg ERE-LUC, 0.02 μg CMV-LUC (Renilla) and 5 ng of ER-α by lipofectamine. Twenty four hours after transfection, the cells were treated as indicated in the figure, harvested 48 hrs after transfection and were assayed for firefly and renilla luciferase.
as §1, with “FIG. 9:” for “FIG. 5:”, “csFBS” for “csFBS at 90,000 cells”, “and 25” for “and 5”
Also 25 ng of ER-α (FIGS. 1, 5, and 9), 50 ng of ER-β (FIGS. 2, 6 and 10) or 12.5 ng of AR (FIG. 3) were introduced by lipofectamine. All the receptors were cloned from rat tissue into the PCR3.1 vector backbone. […] Cells were harvested 48 hrs after transfection, and assayed for firefly and Renilla luciferase activity.
Also 25 ng of ER-α), 50 ng of ER-β or 12.5 ng of AR were introduced by lipofectamine. All the receptors were cloned from rat tissue into the PCR3.1 vector backbone. […] Cells were harvested 48 hrs after transfection, and assayed for firefly and Renilla luciferase activity.

osteoblasts = assay: Osteoblast activity; assay type: cell-based
[2] = system: pS2 (gene encoding the trefoil peptides) in MCF-7 cells; assay: pS2 gene expression in MCF-7 cells (realtime RT-PCR); assay type: cell-based; settings: 16 hrs
Method: MCF-7 cells were plated at 500,000 cells per well of a 6 well plate. RNA was isolated and the message levels of pS2 (gene encoding the trefoil peptides) measured and normalized to 18S ribosomal RNA by realtime polymerase chain reaction (rtPCR).
FIG. 11: Agonistic activity of the indicated compounds in MCF-7 cells. MCF-7 cells were plated at 500,000 cells per well of a 6 well plate. RNA was isolated and the message levels of pS2 gene measured and normalized to 18S ribosomal RNA by realtime rtPCR.
MCF-7 cells were plated at 500,000 cells per well of a 6 well plate. The cells were serum starved for 3 days and then were treated as above for 16 hrs. RNA was isolated and gene expression levels assessed by realtime RT-PCR, following normalization to 18S ribosomal RNA.

ER-β = molecular target: T2, ER-β (Rattus norvegicus, UniProt Q62986); assay: ER-β transactivation, ERE-LUC in COS or 293 cells; assay type: cell-based; settings: COS or 293 cells
T2 construct: expressed in transfected cells; host or cells: COS or 293 cells
Method: as §1, with “FIG. 2:” for “FIG. 5:”, “on ER-β” for “on ER-α”, “and 50” for “and 5”, “of ER-β” for “of ER-α”
as §1, with “FIG. 6:” for “FIG. 5:”, “on ER-β” for “on ER-α”, “and 50” for “and 5”, “of ER-β” for “of ER-α”, “and” for “and were”
as §1, with “FIG. 10:” for “FIG. 5:”, “on ER-β” for “on ER-α”, “in DME+10%” for “in DME without phenol red+10%”, “and 50” for “and 5”, “of ER-β” for “of ER-α”
(§2) All the receptors were cloned from rat tissue into the PCR3.1 vector backbone. […] Cells were harvested 48 hrs after transfection, and assayed for firefly and Renilla luciferase activity.
as §2

CCRF/CEM = settings: estrogen receptor-negative cell line; cited from earlier work
[3] = rats; cited from earlier work
[4] = assay type: in vivo, human; settings: 80 mg/day
PC-3 cells = assay: Androgen independent prostate cancer cell growth; assay type: cell-based
Method: PC-3 cells were plated in RPMI+10% csFBS at 6000 cells per well of a 96 well plate. Medium was changed to RPMI+1% csFBS without phenol red and then treated for 72 hrs with increasing concentrations of SERMs.
The prostate cancer cell line PC-3 was plated in RPMI+10% csFBS at 6000 cells per well of a 96 well plate. Medium was changed to RPMI+1% csFBS without phenol red and cells were treated for 72 hrs with increasing concentrations of SERMs.
PC-3 growth inhibition was determined qualitatively, in vitro, and represented as a grading system based on the ability of the SERMs to inhibit growth. The number −4 is for compounds that induced 100% growth inhibition at 1 uM, −3 for compounds that inhibit growth by about 75-90%, −2 for about 50-70% and −1 for inhibition less than 50% growth.

[5] = baseline to month 12, compared to placebo

T2 sequence (Q62986 whole entry): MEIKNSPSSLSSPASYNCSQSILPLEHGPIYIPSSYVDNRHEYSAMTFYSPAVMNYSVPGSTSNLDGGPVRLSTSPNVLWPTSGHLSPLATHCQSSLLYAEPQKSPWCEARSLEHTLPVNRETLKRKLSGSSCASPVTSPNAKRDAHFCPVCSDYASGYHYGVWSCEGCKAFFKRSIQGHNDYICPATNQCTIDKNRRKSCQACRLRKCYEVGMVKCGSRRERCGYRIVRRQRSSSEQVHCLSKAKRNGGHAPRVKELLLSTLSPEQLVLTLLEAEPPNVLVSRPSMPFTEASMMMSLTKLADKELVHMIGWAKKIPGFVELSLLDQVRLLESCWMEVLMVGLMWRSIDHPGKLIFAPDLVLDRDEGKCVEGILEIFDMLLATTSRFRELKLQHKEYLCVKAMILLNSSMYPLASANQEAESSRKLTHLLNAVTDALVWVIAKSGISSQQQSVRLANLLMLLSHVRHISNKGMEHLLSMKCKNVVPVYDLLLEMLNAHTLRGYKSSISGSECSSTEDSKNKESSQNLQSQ

In the case of `O=C(c1ccccc1)N(c1ccc(O)cc1)c1ccc(O)cc1` [Compound 3d, N,N-bis-(4-hydroxyphenyl)-benzamide], the “osteoclast differentiation / osteoclast activity” value [1] is reported as “suppressed osteoclasts”, the “estrogenic activity in terms of uterine weight” value (uterus) is reported as “exhibited estrogenic activity, in terms of increased uterine weight” and the “% estardiol activity, ER-α” value (ER-α) is reported as 48%. The osteoblast activity (osteoblasts) was “stimulated osteoblasts”.

With `O=C(c1ccc(O)cc1)N(c1ccccc1)c1ccccc1` [Compound 3e, 4-hydroxy-N,N-diphenyl-benzamide] the pS2 expression [2] was “increased pS2 expression levels”, the “ER-β LUC expression, compound alone” value (ER-β) was “most potent in stimulating ER-β” and the “osteoclast differentiation / osteoclast activity” value [1] was “highly suppressive of osteoclast activity”. For the same molecule, the “estrogenic activity in terms of uterine weight” value (uterus) was “exhibited no estrogenic, or anti-estrogenic activity in uterus”, the “% estardiol activity, ER-α” value (ER-α) was 133% and the “ER-α activity (luciferase expression), compound alone” value (ER-α; COS or 293 cells) was “most potent in stimulating ER-α”. The osteoblast activity (osteoblasts) was “stimulated osteoblast activity”.

In the case of `CCN(CC)CCOc1ccc(C(=C(Cl)c2ccccc2)c2ccccc2)cc1` [clomiphene], the “viability of CCRF/CEM cells” value (CCRF/CEM) is given as “cause a decrease in viability”.

For `C[C@]12CC[C@@H]3c4ccc(O)cc4CC[C@H]3[C@@H]1CC[C@@H]2O` [estrogen, Estradiol, reference compound], the pS2 expression [2] is listed as “increased pS2”, the “osteoclast differentiation / osteoclast activity” value [1] is listed as “strongly suppressed osteoclast differentiation” and the “incidence of lipo-polysaccharide induced inflammatory responses” value [3] is listed as “reduce the incidence of lipo-polysacharride induced inflammatory responses”.

In the case of `COc1ccc2c(c1)CCC(c1ccccc1)=C2c1ccc(OCCN2CCCC2)cc1` [nafoxidine], the “viability of CCRF/CEM cells” value (CCRF/CEM) is given as “cause a decrease in viability”.

In the case of `CC/C(=C(\c1ccccc1)c1ccc(OCCN(C)C)cc1)c1ccccc1` [tamoxifen], the “viability of CCRF/CEM cells” value (CCRF/CEM) is given as “cause a decrease in viability” and the “incidence of lipo-polysaccharide induced inflammatory responses” value [3] is given as “reduce the incidence of lipo-polysacharride induced inflammatory responses”.

In the case of `CN(C)CCOc1ccc(/C(=C(/CCCl)c2ccccc2)c2ccccc2)cc1` [toremifene], the “osteoclast differentiation / osteoclast activity” value [1] is reported as “minimally but dose-dependently suppressed the osteoclast differentiation”, the “serum lipid parameters overall” value [4] is reported as “statistically significant improvement in all serum lipid parameters measured” and the “change in HDL levels” value [4, 5] is reported as “+5.4%”. The “change in LDL” value [4, 5] was −9.0%, the “change in total circulating cholesterol” value [4, 5] was −7.1% and the “change in triglyceride levels” value [4, 5] was −20.1%. For the same molecule, the inhibition at 10 µM (PC-3 cells; Homo sapiens, PC-3, 10 μM, 72 hrs) was 100% and the “PC-3 growth inhibition, qualitative grading” value (PC-3 cells; in vitro, data not shown) was −2 (−2 for about 50-70%).
